In US20090214600A1, “METHODS AND COMPOSITIONS FOR GASTRIC RESISTANT ORAL FORMULATIONS FOR INTESTINAL DELIVERY” (priority 2008, published 2009):
Where “and” joins values, the source holds several entries; their conditions need not be identical. Equal entries are not always repeated. Where two headings read alike, the source gives them in different places.

Tests used:
[1] = Rabbit plasma Ceftriaxone concentration after oral administration of oral formulations (HPLC); format: in vivo; settings: oral formulation, 40-80 mg Ceftriaxone, one line per animal (001-005)
Method: Oral Ceftriaxone formulations were administered to rabbit test subjects through a formulation delivery tube to permit oral administration, illustrative of the same absorption processes as the human stomach and intestines. Rabbits were dosed at a Ceftriaxone load of 40-80 mg depending upon body weight. Rabbits were dosed with all five oral Ceftriaxone formulations and absorption data collected by HPLC analysis of plasma Ceftriaxone concentrations from the heparinized rabbit plasma specimen. Blood draws were collected at pre-determined intervals of time, spun down to separate serum, and serum was removed and frozen prior to delivery to Clinical Pathology Laboratories in Oklahoma City, Okla.

[2] = Rabbit plasma Ceftriaxone concentration after IV administration (control); format: in vivo
[3] = single dose IV, 1.0 g, cited from earlier work
[4] = single dose IM, 1.0 g, cited from earlier work
[5] = in vivo; cited from earlier work
[6] = cited from earlier work

SMILES: CO/N=C(\C(=O)N[C@@H]1C(=O)N2C(C(=O)O)=C(CSc3nc(=O)c(=O)[nH]n3C)CS[C@H]12)c1csc(N)n1 [Ceftriaxone, Ceftriaxone sodium]
- Study Sample Concentration ([1]; 0.00 Hours): BLQ (BLQ = Below Limit of Quantitation (<1.00 mcg/mL))
- Study Sample Concentration ([1]; 0.5 Hours): 40.194 µg/mL and 31.84 µg/mL and 110.88 µg/mL and 143.15 µg/mL and 35.69 µg/mL
- Study Sample Concentration ([1]; 1.0 Hours): 27.41 µg/mL and 21.71 µg/mL and 75.60 µg/mL and 97.60 µg/mL and 24.33 µg/mL
- Study Sample Concentration ([1]; 2.0 Hours): 18.27 µg/mL and 14.47 µg/mL and 50.40 µg/mL and 65.07 µg/mL and 16.22 µg/mL
- Study Sample Concentration ([1]; 4.0 Hours): 7.31 µg/mL and 5.79 µg/mL and 20.16 µg/mL and 26.03 µg/mL and 6.44 µg/mL
- Study Sample Concentration ([1]; 6.0 Hours): 5.48 µg/mL and 4.34 µg/mL and 15.12 µg/mL and 19.52 µg/mL and 4.87 µg/mL
- Plasma Concentration of Ceftriaxone Over Time After IV Administration ([2]; animal 006, 0.00 Hours): BLQ (BLQ = Below Limit of Quantitation (<1.00 mcg/mL))
- concentration at 0.5 h ([2]; animal 006, 0.5 Hours, read-out: Plasma Concentration of Ceftriaxone Over Time After IV Administration): 198 µg/mL
- concentration at 1 h ([2]; animal 006, 1.0 Hours, read-out: Plasma Concentration of Ceftriaxone Over Time After IV Administration): 136 µg/mL
- concentration at 2 h ([2]; animal 006, 2.0 Hours, read-out: Plasma Concentration of Ceftriaxone Over Time After IV Administration): 90.8 µg/mL
- concentration at 4 h ([2]; animal 006, 4.0 Hours, read-out: Plasma Concentration of Ceftriaxone Over Time After IV Administration): 36.4 µg/mL
- concentration at 6 h ([2]; animal 006, 6.0 Hours, read-out: Plasma Concentration of Ceftriaxone Over Time After IV Administration): 27.3 µg/mL
- Plasma Concentrations ([3]; 0.5 hr): 151 µg/mL
- Plasma Concentrations ([3]; 1 hr): 111 µg/mL
- Plasma Concentrations ([3]; 2 hr): 88 µg/mL
- Plasma Concentrations ([3]; 4 hr): 67 µg/mL
- Plasma Concentrations ([3]; 6 hr): 53 µg/mL
- Plasma Concentrations ([3]; 8 hr): 43 µg/mL
- Plasma Concentrations ([3]; 12 hr): 28 µg/mL
- Plasma Concentrations ([3]; 16 hr): 18 µg/mL
- Plasma Concentrations ([3]; 24 hr): 9 µg/mL
- Plasma Concentrations ([4]; 0.5 hr): 40 µg/mL
- Plasma Concentrations ([4]; 1 hr): 68 µg/mL
- Plasma Concentrations ([4]; 2 hr): 76 µg/mL
- Plasma Concentrations ([4]; 4 hr): 68 µg/mL
- Plasma Concentrations ([4]; 6 hr): 56 µg/mL
- Plasma Concentrations ([4]; 8 hr): 44 µg/mL
- Plasma Concentrations ([4]; 12 hr): 29 µg/mL
- dose excreted as unchanged drug in the urine [5]: 33-67%
- solubility in ethanol ([6]; ethanol): slightly soluble
- solubility in methanol ([6]; methanol): sparingly
- solubility in water ([6]; water): readily soluble
